Source: ChEMBL document CHEMBL1201862, “PubChem BioAssay data set” (2004)
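The compound was tested at five concentrations on cells cultured in 96-well plates, with a 48-hour exposure period. At the GI50, growth is halved.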 The source made the active and inactive calls. No stated cut-off is given here; in the data, active = GI50 up to about 1.1 µM and inactive = higher.

Key:
Experiment in all cases: growth of human tumour cells (NCI), 48 h
SNB-78 = system: SNB-78
K562 = system: K562
OVCAR-8 = system: OVCAR-8
RXF 393 = system: RXF 393
OVCAR-3 = system: OVCAR-3
NCI-H23 = system: NCI-H23
COLO 205 = system: COLO 205
SK-MEL-5 = system: SK-MEL-5
CCRF-CEM = system: CCRF-CEM
SNB-19 = system: SNB-19
SF-268 = system: SF-268
LXFL 529 = system: LXFL 529
SNB-75 = system: SNB-75
IGROV-1 = system: IGROV-1
HOP-92 = system: HOP-92
SN12C = system: SN12C
HCC 2998 = system: HCC 2998

SMILES | GI50 (SNB-78) | GI50 (K562) | GI50 (OVCAR-8) | GI50 (RXF 393) | GI50 (OVCAR-3) | GI50 (NCI-H23) | GI50 (COLO 205) | GI50 (SK-MEL-5) | GI50 (CCRF-CEM) | GI50 (SNB-19) | GI50 (SF-268) | GI50 (LXFL 529) | GI50 (SNB-75) | GI50 (IGROV-1) | GI50 (HOP-92) | GI50 (SN12C) | GI50 (HCC 2998)
O=C1C(C2=[N+]([O-])c3ccccc3C2=O)=[N+]([O-])c2ccccc21 | 38.3 µM (inactive) | 19.7 µM (inactive) | 24.7 µM (inactive) | 31.9 µM (inactive) | 16.3 µM (inactive) | 23.9 µM (inactive) | 17.7 µM (inactive) | 17.8 µM (inactive) | 19.3 µM (inactive) | 46.7 µM (inactive) | 28.2 µM (inactive) | 17 µM (inactive) | 35.1 µM (inactive) | 32.1 µM (inactive) |  |  | 
NC(=S)N/N=C/c1nccc2ccccc12 |  | 2.73 µM (inactive) | 0.313 µM (active) | 0.257 µM (active) | 0.307 µM (active) | 0.459 µM (active) | 0.957 µM (active) | 0.467 µM (active) | 0.453 µM (active) | 0.948 µM (active) | 0.377 µM (active) | 1.96 µM (inactive) | 0.578 µM (active) | 0.762 µM (active) | 2.74 µM (inactive) | 0.682 µM (active) | 0.664 µM (active)
[O-][Cl+3]([O-])([O-])[O-].c1ccc(-c2[o+]c(-c3ccccc3)c(-c3ccccc3)c(-c3ccccc3)c2-c2ccccc2)cc1 | > 100 µM (inactive) |  | > 100 µM (inactive) | 12 µM (inactive) | > 100 µM (inactive) | > 100 µM (inactive) | > 100 µM (inactive) | > 100 µM (inactive) |  |  | > 100 µM (inactive) | > 100 µM (inactive) | > 100 µM (inactive) | > 100 µM (inactive) | > 100 µM (inactive) | > 100 µM (inactive) | > 100 µM (inactive)
Cc1ccc(Cn2c(C)nc3c2C(=O)c2ccccc2C3=O)cc1 | 20.3 µM (inactive) | 0.834 µM (active) | 3.05 µM (inactive) | 11.4 µM (inactive) | 10.6 µM (inactive) | 5.21 µM (inactive) | 15.8 µM (inactive) | 4.52 µM (inactive) | 1.98 µM (inactive) | 11.6 µM (inactive) | 3.43 µM (inactive) | 1.72 µM (inactive) | 13.9 µM (inactive) | 5.45 µM (inactive) |  | 6.18 µM (inactive) | 17.6 µM (inactive)
COc1cc(/C=C2\C(=O)N(C(=O)Cc3ccccc3)N=C2C)ccc1O | > 100 µM (inactive) | > 100 µM (inactive) | > 100 µM (inactive) |  | > 100 µM (inactive) | > 100 µM (inactive) | > 100 µM (inactive) | 3.01 µM (inactive) | > 100 µM (inactive) | > 100 µM (inactive) | > 100 µM (inactive) |  | > 100 µM (inactive) |  |  | > 100 µM (inactive) | > 100 µM (inactive)
CC1(C)CC(/C=C2/OC(=O)c3ccccc32)=C(C#N)C(=O)O1 | > 100 µM (inactive) | > 100 µM (inactive) | > 100 µM (inactive) |  | > 100 µM (inactive) | > 100 µM (inactive) | > 100 µM (inactive) | > 100 µM (inactive) | > 100 µM (inactive) | > 100 µM (inactive) | > 100 µM (inactive) | > 100 µM (inactive) | > 100 µM (inactive) | > 100 µM (inactive) |  | > 100 µM (inactive) | 0.294 µM (active)
COc1ccc(/C(=N\NC(=O)C(N)=O)C(c2ccc(OC)cc2)C2(O)C(=O)Nc3c(Cl)cccc32)cc1 (centres undefined) | > 100 µM (inactive) |  | > 100 µM (inactive) | > 100 µM (inactive) | > 100 µM (inactive) | > 100 µM (inactive) | > 100 µM (inactive) | > 100 µM (inactive) | 50.1 µM (inactive) | > 100 µM (inactive) | > 100 µM (inactive) | > 100 µM (inactive) | > 100 µM (inactive) | > 100 µM (inactive) | > 100 µM (inactive) | > 100 µM (inactive) | > 100 µM (inactive)
Cc1cc(O)nc(NNC(C#N)c2ccco2)n1 (centres undefined) | > 100 µM (inactive) | > 100 µM (inactive) | > 100 µM (inactive) | > 100 µM (inactive) | > 100 µM (inactive) | > 100 µM (inactive) | > 100 µM (inactive) | > 100 µM (inactive) | > 100 µM (inactive) |  | > 100 µM (inactive) | > 100 µM (inactive) | 37.2 µM (inactive) | > 100 µM (inactive) | > 100 µM (inactive) | > 100 µM (inactive) | 
CC(=O)Oc1cc(OC(C)=O)c(OC(C)=O)c2c1CC1C(=O)C3(CCc4ccccc43)C(=O)C1C2 (centres undefined) | 23.1 µM (inactive) | 9.2 µM (inactive) | 14.2 µM (inactive) | 15 µM (inactive) | 4.82 µM (inactive) | 18.4 µM (inactive) | 19.6 µM (inactive) |  | 10.7 µM (inactive) |  | > 10 µM (inactive) | 14.4 µM (inactive) | 0.912 µM (active) | 19.8 µM (inactive) | > 100 µM (inactive) | 17.3 µM (inactive) | 6.7 µM (inactive)
O=C(O)CCCc1cc2c(s1)-c1cccc3cccc-2c13 | 27.6 µM (inactive) | 31.9 µM (inactive) | 39.4 µM (inactive) |  | 19.1 µM (inactive) | 21.2 µM (inactive) | 20.3 µM (inactive) |  |  | 27.4 µM (inactive) | 39.6 µM (inactive) | 35 µM (inactive) | 50.4 µM (inactive) | 47.3 µM (inactive) | 17.7 µM (inactive) | 26 µM (inactive) | 24.3 µM (inactive)
Cc1cc(O)nc(NNC(C#N)c2cccc([N+](=O)[O-])c2)n1 (centres undefined) | > 100 µM (inactive) | > 100 µM (inactive) | > 100 µM (inactive) | > 100 µM (inactive) | > 100 µM (inactive) | > 100 µM (inactive) | > 100 µM (inactive) | > 100 µM (inactive) | > 100 µM (inactive) |  | > 100 µM (inactive) | > 100 µM (inactive) | 65.3 µM (inactive) | > 100 µM (inactive) | > 100 µM (inactive) | > 100 µM (inactive) | 
COc1cc(C(C#N)NNC(=O)Cc2ccccc2)cc(OC)c1OC (centres undefined) | > 100 µM (inactive) | > 100 µM (inactive) | > 100 µM (inactive) | > 100 µM (inactive) | > 100 µM (inactive) | > 100 µM (inactive) | > 100 µM (inactive) | > 100 µM (inactive) | > 10 µM (inactive) |  | > 100 µM (inactive) | > 100 µM (inactive) | 35.5 µM (inactive) | > 100 µM (inactive) | 95.3 µM (inactive) | > 100 µM (inactive) | 
COC12C=CC(CC1)c1c(O)ccc(O)c12 (centres undefined) | 49.2 µM (inactive) | 22.6 µM (inactive) | 33 µM (inactive) | > 79.6 µM (inactive) | 21.8 µM (inactive) | > 86.1 µM (inactive) | 22.6 µM (inactive) | 45 µM (inactive) | 20.6 µM (inactive) | > 70.6 µM (inactive) | > 31.6 µM (inactive) | 25.4 µM (inactive) | 53.7 µM (inactive) | > 100 µM (inactive) |  | 59.3 µM (inactive) | 99.3 µM (inactive)
